Test results as given in US8709381B2, “Compound containing a carbon or an oxygen isotope, preparation and use thereof, and composition comprising thereof” (Beijing Top Grade Medical Equipment Co., Ltd, priority 2010, dated 2014).

Columns and labels:
[1] = fluorescence analysis of structure after photon irradiation; type: physicochemical; settings: 3 mg irradiated by 50 MV photons, 30 Gy
Procedure: (§1) The details of the procedure of the present example are as follow: 3 mg of adriamycin is irradiated by 50 MV of photons with a dosage of 30 Gy (gray). […] A ^12C atom of the adriamycin molecule is converted into a ^11C positron nuclide and an ^16O atom therein is converted into a ^15O positron nuclide.

SD rats = test: distribution after tail vein injection of 11C/15O-labeled adriamycin; type: in vivo, rat; settings: labeled with 11C and 15O
Procedure: as §1

porphyrin synthesis = settings: in vivo
From the text: Example 4 relates to a study of imaging of porphyrin synthesis in-vivo.
Porphyrin plays an important role in an organism. It is important for the study of physiological conditions, biochemical condition, and diseases to know the porphyrin synthesis in vivo. 5-ALA is a precursor of the porphyrin synthesis. After it is irradiated by photons of 50 MV with a dosage of 30 Gy (gray), a ^12C atom of the 5-ALA molecule is converted into an ^11C positron nuclide and a ^16O atom therein is converted into an ^15O positron nuclide.

structure after the irradiation (fluorescence analysis) [1] | site of accumulation in vivo (SD rats) | Compound | main organ of porphyrin synthesis (porphyrin synthesis)
no change in the structure | accumulates at the heart | COc1cccc2c1C(=O)c1c(O)c3c(c(O)c1C2=O)C[C@@](O)(C(=O)CO)C[C@@H]3O[C@H]1C[C@H](N)[C@H](O)[C@H](C)O1 [adriamycin] | –
– | – | NCC(=O)CCC(=O)O [5-ALA] | liver is the main organ of porphyrin synthesis
